From US20240148835A1, “TREATING DISORDERS ASSOCIATED WITH DYRK1A DYSFUNCTION” (UNIVERSITY OF FLORIDA RESEARCH FOUNDATION, INCORPORATED, priority 2021, published 2024)
“Also recorded” adds a separate entry of the source.

Key:
[1] = test system: protein synthesis in the mPFC of cHets; test: SUnSET puromycin incorporation assay (protein synthesis) in mPFC after (1-3)IGF-1 treatment; assay type: in vivo, mouse
Method: Protein synthesis is a critical output of mTOR signaling, particularly downstream of P70 Ribosomal S6 Kinase (S6K1).
(§1) (1-3)IGF-1 was acquired from VWR/Bachem (catalog #H-2468.1000) and dissolved in saline with 0.01% BSA fresh every day. Intraperitoneal injections of 10 mg kg′ (1-3)IGF-1 or vehicle were delivered daily at 8 a.m. starting on P14 and ending on P85. […] The S6K1 inhibitor PF-4708671 was acquired from Medkoo Biosciences (#406432) dissolved in 10% DMSO, 10% tween 80 and 80% water. (1-3)IGF-1 (10 mg kg′) and PF-4708671 (50 mg kg^−1) or vehicle were injected subcutaneously into pups from P0 to P7. Rapamycin was acquired from LC laboratories (R-5000) and dissolved in 4% ethanol, 5% tween-80, and 5% PEG400 in PBS. (1-3)IGF-1 (10 mg kg′) and Rapamycin (1 mg kg′) or vehicle were injected subcutaneously into pups from P0 to P7. SB216763 was acquired from TOCRIS (#1616) and dissolved in 5% DMSO and 0.9% saline in dH20. SB216763 (0.5 mg kg′) was injected subcutaneously into pups from P0 to P7.
300 μm coronal prefrontal cortical slices were obtained from postnatal day 7 (P7) and adult mice. Slices were allowed to recover in artificial cerebrospinal fluid (in mM: 124 NaCl, 2.8 KCl, 2 CaCl2, 1.25 NaH2P04, 1.25 MgSO4, 26 NaHCO3, 10 Dextrose) for 2 h at 32° C. Puromycin (5 μg ml-1) was applied to slices for 40 min at 32° C. to label newly synthesized proteins. Slices were then snap frozen on dry ice and stored at −80° C. until used. Protein (50 μg) was loaded on 4-12% gradient gels, transferred onto polyvinylidene difluoride membranes, and probed with anti-puromycin antibody (1:5,000, Millipore, MABE343). Anti-mouse HRP-tagged secondary antibody was used and chemiluminiscence was developed using standard ECL reagents. Quantification was done by measuring intensity of each lane from 14 to 191 kDa, subtracting it from the intensity of the unlabeled lane and normalized to loading control.

[2] = test system: mouse model of Rett syndrome; conditions: chronic administration, same paradigm; cited from earlier work
Dyrk1a cHets = test: Chronic (1-3)IGF-1 treatment from P14: behavioral battery; assay type: in vivo, mouse
From the text: To determine whether chronic (1-3)IGF-1 administration ameliorates ASD-relevant behaviors, we conducted a behavioral battery to assay sociability and repetitive behaviors as well as locomotion, anxiety-like behavior, acoustic startle, and sensorimotor gating. […] Taken together, (1-3)IGF-1 treatment ameliorates morphological, neuronal, and behavioral deficits caused by cortical Dyrk1a mutations.
as §1
3 chamber social approach: Briefly, after at least 2 weeks housing under reversed light cycle, each mouse was habituated in the three-chamber box for 5 minutes before a stimulus mouse was placed into a tube in the “social” chamber. The stimulus mice used were young adult male mice. The time spent in each chamber (“mouse+tube”, “empty tube”, “center”) was hand-scored for sniffing time using Boris.
Marble burying: Male mice were placed individually in a cage with 5 cm of ¼″ corncob bedding and 20 black marbles (14.3 mm in diameter) arranged in a 4×5 matrix and left undisturbed for 30 min. The number of marbles that were at least two-thirds buried at the end of the trial were counted. […]

[3] = 3-chamber social approach, cHets

Substance: (1-3)IGF-1: a tripeptide cleaved from the N-terminus of IGF-1; acquired from VWR/Bachem, CAS No. 32302-76-4 (GPE; Insulin-like growth factor 1; UniProt P05019 49-51, looked up, fragment)
- puromycin incorporation (protein synthesis) in adult cHets ([1]; adult, chronic treatment): significantly increased; also recorded: restores decreased protein synthesis
- puromycin incorporation in adult controls ([1]; adult, relative to vehicle-treated controls): significant decrease in puromycin incorporation
- puromycin incorporation (protein synthesis) in neonatal cHets ([1]; daily treatment from P0 to P7): increased puromycin abundance; also recorded: restores decreased protein synthesis
- puromycin incorporation in neonatal controls ([1]; daily treatment from P0 to P7): without impacting controls
- lifespan, motor coordination, cardiac function, microcephaly, spine density, and synaptic function [2]: significantly improved
- preference index (Dyrk1a cHets; [3]): restored
- social interaction time (hand-scored) (Dyrk1a cHets; [3]): increased
- social deficit of cHets (time interacting with stimulus mouse, preference index) (Dyrk1a cHets; 3-chamber social approach, cHets, daily from P14): restored this social deficit in cHets
- sociability of controls (Dyrk1a cHets; 3-chamber social approach, controls): did not impact controls
- preference for stimulus mouse vs inanimate object within group, 3-chamber social approach (Dyrk1a cHets; all genotype X treatment groups): significant preference for interaction with a stimulus mouse; also recorded: significant preference for social interaction
- number of marbles buried by cHets (Dyrk1a cHets; marble burying, cHets): no effect; also recorded: subtle modification of the phenotype
- qualitative interaction with the marbles (Dyrk1a cHets; marble burying, cHets): qualitatively interaction with the marbles increased in cHets
